Measurements from patent US6835382B2, “Ii peptide therapeutics to enhance antigen presentation” (University of Massachusetts, priority 1996, dated 2004).
Non-standard residues stand in square brackets, D forms with d. Cit = NC(=O)NCCC[C@H](N)C(=O)O; Orn = NCCC[C@H](N)C(=O)O

Columns and labels:
[1] = test system: murine E^k MHC class II allele; experiment: simultaneous assay, E^k allele (CH27 APC, TPc9.1 T hybridoma, THMCC82-103 or PGCC81-104); assay type: cell-based; settings: for Times Baseline Response, Ek: Table 3, values reduced relative to E^d by a factor of 10
Experimental: (§1) Examples 1-4 (Tables 1-18) will be briefly considered in order to establish the concept of tolerance discussed above. These examples describe experimental results observed in the so-called “simultaneous” assay. In the simultaneous assay four principle components are cultured together for a 24 hour period. The components of this culture, which are added simultaneously, are: (a) an antigenic peptide characterized by the ability to bind specifically into the antigenic peptide binding groove of an MHC class II molecule, (b) mitomycin C-treated, MHC class II-positive antigen presenting cells (APC) bearing the MHC class II allele required for binding of the specific antigenic peptide, and presentation of the specific antigenic peptide to the antigenic peptide-specific T cell hybridoma, (c) an effector compound of the present invention, and (d) an MHC class II allele-restricted T cell hybridoma specific for the antigenic peptide and the MHC class II allele restricting its presentation. Following incubation of this primary culture, an aliquot of its supernatant is transferred into a second culture well for incubation with an interleukin-dependent lymphoblastoid cell line. The degree of stimulation of that second, indicator cell by the interleukins which had been released from the activated T cell hybridoma in the primary culture is measured by quantitating tritiated thymidine deoxyribose {[^3H]TdR} uptake into the DNA of the HT-2 indicator cells of that second culture.
(§2) In the “simultaneous assay” the four components of the assay are cultured together for a 24 h period. The components of this primary culture, added at the same time or simultaneously, are: (a) the antigenic peptide, (b) mitomycin C-treated, MHC class II-positive antigen presenting cells (APC) with the MHC class II allele required for binding of the specific antigenic peptide and its presentation to the antigenic peptide-specific T cell hybridoma, (c) an AE101 series effector peptide, and (d) MHC class II allele-restricted T cell hybridoma specific for the antigenic peptide and the MHC class II allele restricting its presentation. At the end of the incubation of this primary culture, an aliquot of its supernatant is transferred into a second culture well for incubation with an interleukin-dependent lymphoblastoid cell line. The degree of stimulation of that second, indicator cell by the interleukins which had been released from the activated T cell hybridoma in the primary culture is measured by quantitating tritiated thymidine deoxyribose {[^3H]TdR} uptake into the DNA of the HT-2 indicator cells of that second culture.
(§3) For these various assays, the following antigenic peptides were used: HEL11-25, hen egg lysozyme 11-25, AMKRHGLDNYRGYSL(A^d) (SEQ ID NO:5); HEL46-61, hen egg lysozyme 46-61, NTDGSTDYGILQINSR(Ak) (SEQ ID NO:6); HEL106-116, hen egg lysozyme 106-116, NAWVAWRNRCK (E^d) (SEQ ID NO:7); PGCC81-104, pigeon cytochrome c 81-104, […] (Ek) (SEQ ID NO:8), and THMCC82-103, tobacco hornworm moth cytochrome c 82-103, […] (Ek) (SEQ ID NO:9). AE101 series peptides were obtained from commercial sources. In general, the purity and composition of each peptide was confirmed by HPLC separation and mass spectrometry. The native protein antigens were HEL, hen egg lysozyme, and PGCC, pigeon cytochrome C. They were obtained from commercial sources.
(§4) For the experiments of these Examples, several T cell hybridomas, which are specific for certain antigenic peptides, were used. The TPc9.1 T hybridoma is specific for pigeon cytochrome C 81-104 peptide presented on the murine class II MHC allele E^k. The TPc9.1 hybridoma responds heteroclitically to tobacco hornworm moth cytochrome c 82-103 on E^k. The 3A9 T hybridoma is specific for hen egg lysozyme 46-61 on A^k. The 9.30.B2 hybridoma is specific for hen egg lysozyme 11-25 on A^d, and the G28.C9 hybridoma is specific for hen egg lysozyme 106-116 on E^d. […]

[2] = target: T1, murine E^d MHC class II allele (Mus musculus, UniProt P01904+P01915); experiment: simultaneous assay, E^d allele (A20 APC, G28.C9 T hybridoma, HEL106-116; HT-2 [3H]TdR readout); assay type: cell-based; set-up: The A20 and CH27 B cell lymphoma lines express H-2^d and H-2^k alleles, respectively; endogenous in cells; host or cells: A20 B cell lymphoma (mitomycin C-treated or paraformaldehyde-fixed); settings: for Times Baseline Response, Ed: Table 3
T1 sequence (P01904 26-255): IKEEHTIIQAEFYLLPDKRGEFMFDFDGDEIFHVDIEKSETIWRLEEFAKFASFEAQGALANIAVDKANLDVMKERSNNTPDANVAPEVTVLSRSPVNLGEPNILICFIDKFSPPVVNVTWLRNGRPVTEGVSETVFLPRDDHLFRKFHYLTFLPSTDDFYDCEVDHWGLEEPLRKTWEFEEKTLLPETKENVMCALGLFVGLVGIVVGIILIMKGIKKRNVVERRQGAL
T1 sequence (P01915 27-264 limits assumed): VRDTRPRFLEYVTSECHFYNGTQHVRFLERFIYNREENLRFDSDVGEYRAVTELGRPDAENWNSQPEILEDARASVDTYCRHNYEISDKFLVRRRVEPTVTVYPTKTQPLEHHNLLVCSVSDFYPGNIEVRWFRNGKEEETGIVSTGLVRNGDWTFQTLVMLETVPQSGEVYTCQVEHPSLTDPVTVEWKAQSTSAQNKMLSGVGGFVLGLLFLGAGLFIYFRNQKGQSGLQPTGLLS
Experimental: as §1, §2, §3, §4

[3] = Table 9, AE peptide 64 μM, supernatant 1:4, normalized by a factor of 5
[4] = Table 9, AE peptide 64 μM, supernatant 1:4
[5] = Table 6, AE peptide 64 μM, supernatant 1:4, reduced by a factor of 5
[6] = Table 6, AE peptide 64 μM, supernatant 1:4
[7] = AE peptide 64 μM, supernatant 1:4
[8] = Table 10, AE peptide 64 μM, supernatant 1:2 (first value)
[9] = Table 10, AE peptide 64 μM, supernatant 1:4 (second value)
[10] = Table 10, AE peptide 16 μM (second value), supernatant 1:2
[11] = Table 10, AE peptide 64 μM (first value), supernatant 1:2

Q: With Ac-LRMKLP D-NH2 [AE244] as the substance, how does the “Times Baseline Response, E^k” value [1, 3] read?
A: 2.7

Q: What about the “Times Baseline Response, E^d” value [2, 4] of the same substance?
A: 0.9

Q: What does the source list for Ac-LRMKLP E-NH2 [AE245]?
A: Times Baseline Response, E^k [1, 3]: 2.8; Times Baseline Response, E^d [2, 4]: 0.9

Q: How did the “Times Baseline Response, E^k” value [1, 3] turn out when Ac-LRMKLP H-NH2 [AE243] was run?
A: 14.5

Q: And the “Times Baseline Response, E^d” value [2, 4]?
A: 7.2

Q: Ac-LRMKLP HArg-NH2 [AE242] was tested. Which “Times Baseline Response, E^k” value [1, 3] did it give?
A: 17.6

Q: And the “Times Baseline Response, E^d” value [2, 4]?
A: 8.0

Q: Which “Times Baseline Response, E^k” value [1, 3] does the source give for Ac-LRMKLP L-NH2 [AE251] here?
A: 18.6

Q: And the “Times Baseline Response, E^d” value [2, 4]?
A: 11.9

Q: Ac-LRMKLP M-NH2 [AE250] was tested. Which “Times Baseline Response, E^k” value [1, 3] did it give?
A: 21.3

Q: And the “Times Baseline Response, E^d” value [2, 4]?
A: 13.9

Q: How did the “Times Baseline Response, E^k” value [1, 3] turn out when Ac-LRMKLP Q-NH2 [AE247] was run?
A: 10.9

Q: And the “Times Baseline Response, E^d” value [2, 4]?
A: 4.5

Q: With Ac-LRMKLP Y-NH2 [AE249] as the substance, how does the “Times Baseline Response, E^k” value [1, 3] read?
A: 17.1

Q: What about the “Times Baseline Response, E^d” value [2, 4] of the same substance?
A: 12.2

Q: Ac-LRMKLP[Orn]-NH2 [AE240] was tested. Which “Times Baseline Response, E^k” value [1, 3] did it give?
A: 11.5

Q: And the “Times Baseline Response, E^d” value [2, 4]?
A: 9.8

Q: Ac-LRMKLpk-NH2 [AE173] was tested. Which “Times Baseline Response, E^k” value ([1]; Table 12, AE peptide 1 μM (fourth value), supernatant 1:4) did it give?
A: 2.1

Q: And the “Times Baseline Response, E^k” value ([1]; Table 12, AE peptide 4 μM (third value), supernatant 1:4)?
A: 4.3

Q: What about the “Times Baseline Response, E^k” value ([1]; Table 12, AE peptide 16 μM (second value), supernatant 1:4) of the same substance?
A: 25.0

Q: What about the “Times Baseline Response, E^k” value ([1]; Table 12, AE peptide 64 μM (first value), supernatant 1:4) of the same substance?
A: 51.3

Q: What about the “Times Baseline Response, E^d” value ([2]; Table 12, AE peptide 1 μM (fourth value), supernatant 1:2) of the same substance?
A: 2

Q: What about the “Times Baseline Response, E^d” value ([2]; Table 12, AE peptide 4 μM (third value), supernatant 1:2) of the same substance?
A: 10

Q: What about the “Times Baseline Response, E^d” value ([2]; Table 12, AE peptide 16 μM (second value), supernatant 1:2) of the same substance?
A: 92

Q: And the “Times Baseline Response, E^d” value ([2]; Table 12, AE peptide 64 μM (first value), supernatant 1:2)?
A: 123

Q: What does the source list for Ac-LRM[Cit]LPK-NH2 [AE211]?
A: Times Baseline Response, E^k [1, 5]: 3.4; Times Baseline Response, E^d [2, 6]: 1.7

Q: What does the source list for Ac-LRM[Orn]LPK-NH2 [AE210]?
A: Times Baseline Response, E^k [1, 5]: 9.0; Times Baseline Response, E^d [2, 6]: 6.6

Q: Ac-LR[Cit]KLPK-NH2 [AE196] was tested. Which “Times Baseline Response, E^k” value ([1]; Table 5, AE peptide 64 μM, supernatant 1:4, normalized to E^d by a factor of 10) did it give?
A: 18.4

Q: And the “Times Baseline Response, E^d” value ([2]; Table 5, AE peptide 64 μM, supernatant 1:4)?
A: 13.6

Q: Ac-M RMKLPK-NH2 [AE190] was tested. Which “Times Baseline Response, Ek” value [1, 7] did it give?
A: 15.2

Q: What about the “Times Baseline Response, Ed” value [2, 7] of the same substance?
A: 9.8

Q: Ac-N RMKLPK-NH2 [AE187] was tested. Which “Times Baseline Response, Ek” value [1, 7] did it give?
A: 9.5

Q: And the “Times Baseline Response, Ed” value [2, 7]?
A: 6.3

Q: Which “Times Baseline Response, Ek” value [1, 7] does the source give for Ac-Q RMKLPK-NH2 [AE188] here?
A: 7.7

Q: And the “Times Baseline Response, Ed” value [2, 7]?
A: 8.8

Q: For Ac-YRAKLPKSAK-NH2 [AE122], which “Times Baseline Response, E^k” value [1, 8] is on record?
A: 46.2

Q: What about the “Times Baseline Response, E^k” value [1, 9] of the same substance?
A: 41.4

Q: And the “Times Baseline Response, E^d” value [2, 10]?
A: 9.2

Q: And the “Times Baseline Response, E^d” value [2, 11]?
A: 16.2

Q: What does the source list for Ac-YRMALPKSAK-NH2 [AE123]?
A: Times Baseline Response, E^k [1, 8]: 65.0; Times Baseline Response, E^k [1, 9]: 51.1; Times Baseline Response, E^d [2, 10]: 10.7; Times Baseline Response, E^d [2, 11]: 24.0

Q: Which “Times Baseline Response, E^k” value [1, 8] does the source give for Ac-YRMKAPKSAK-NH2 [AE124] here?
A: 66.0

Q: What about the “Times Baseline Response, E^k” value [1, 9] of the same substance?
A: 65.9

Q: And the “Times Baseline Response, E^d” value [2, 10]?
A: 7.3

Q: And the “Times Baseline Response, E^d” value [2, 11]?
A: 12.5

Q: Which “Times Baseline Response, E^k” value [1, 8] does the source give for Ac-YRMKLAKSAK-NH2 [AE125] here?
A: 38.7

Q: What about the “Times Baseline Response, E^k” value [1, 9] of the same substance?
A: 32.8

Q: What about the “Times Baseline Response, E^d” value [2, 10] of the same substance?
A: 1.7

Q: And the “Times Baseline Response, E^d” value [2, 11]?
A: 2.0

Q: With Ac-YRMKLPASAK-NH2 [AE126] as the substance, how does the “Times Baseline Response, E^k” value [1, 8] read?
A: 53.4

Q: What about the “Times Baseline Response, E^k” value [1, 9] of the same substance?
A: 56.4

Q: And the “Times Baseline Response, E^d” value [2, 10]?
A: 6.8

Q: And the “Times Baseline Response, E^d” value [2, 11]?
A: 18.2

Q: Which “Times Baseline Response, E^k” value [1, 8] does the source give for Ac-YRMKLPKAAK-NH2 [AE127] here?
A: 63.6

Q: And the “Times Baseline Response, E^k” value [1, 9]?
A: 63.4

Q: And the “Times Baseline Response, E^d” value [2, 10]?
A: 12.4

Q: And the “Times Baseline Response, E^d” value [2, 11]?
A: 19.1
